# Tested on: NCIH727 cells
# Assay: Cancer cell line proliferation (CellTiter-Glo), NCI-H727
# Type: cell-based
# Settings: Homo sapiens, NCIH727 lung carcinoid, heterozygous G12V
# Protocol: Cell lines were cultured essentially according to ATCC recommendations.
# SW620 and NCIH727 cells were plated in 384-well tissue culture plates at 1,000 cells/well and incubated at 37° C./5% CO2 for 72 hr in 40 μl of media. […] Each cell line was then treated with test compounds at various concentrations with a final concentration of 0.5% DMSO/well, and then incubated at 37° C./5% CO2 for 72 hr. 40 μl of CellTiter-Glo® Reagent (Promega Corporation, Madison, WI) was added to each well and processed according manufacturer's protocol. Results were analyzed and IC50 values were calculated in GraphPad 8.0 software.
Structure (SMILES),EC50 (72 h) [nM],EC50 (72 hr) [nM]
C#Cc1c(F)ccc2cc(O)cc(-c3nc(OC)c4c(N5CC6CCC(C5)N6C(=O)C(C)=O)nc(OCC5(CN6CC7CC7C6)CC5)nc4c3F)c12 (centres unmarked) [Example 124],100 to 1000,
[2H]C([2H])([2H])Oc1nc(-c2cc(O)cc3ccc(F)c(C#C)c23)c(F)c2nc(OCC3(CN4CC5CC5C4)CC3)nc(N3CC4CCC(C3)N4C(=O)C(C#N)CC(F)(F)F)c12 (centres unmarked) [Example 125],100 to 1000,
C#Cc1c(F)ccc2cc(O)cc(-c3nc(OC)c4c(N5CC6CCC(C5)N6C(=O)C(C#N)CC)nc(OCC5(CN6CC7CC7C6)CC5)nc4c3F)c12 (centres unmarked) [Example 126],100 to 1000,
O=CO.[2H]C([2H])([2H])Oc1nc(-c2cc(O)cc3ccc(F)c(C#C)c23)c(F)c2nc(OCC3(CN4CC5CC5C4)CC3)nc(N3CC4CCC(C3)N4C(=O)C(C#N)CC#N)c12 (centres unmarked) [Example 127],100 to 1000,
C#Cc1c(F)ccc2cc(O)cc(-c3nc(OC)c4c(N5CC6CCC(C5)N6C(=O)CC[N+](=O)[O-])nc(OCC5(CN6CC7CC7C6)CC5)nc4c3F)c12 (centres unmarked) [Example 128],100 to 1000,
C#Cc1c(F)ccc2cc(O)cc(-c3nc(OC)c4c(N5CC6CCC(C5)N6C(=O)N5CC(C#N)C5)nc(OCC5(CN6CC7CC7C6)CC5)nc4c3F)c12 (centres unmarked) [Example 130],< 100,
C#Cc1c(F)ccc2cc(O)cc(-c3nc(OC)c4c(N5CC6CCC(C5)N6C(=O)C(CC#N)CC#N)nc(OCC5(CN6CC7CC7C6)CC5)nc4c3F)c12 (centres unmarked) [Example 131],100 to 1000,
C#Cc1c(F)ccc2cc(O)cc(-c3nc(OC)c4c(N5CC6CCC(C5)N6C(=O)CCC=O)nc(OCC5(CN6CC7CC7C6)CC5)nc4c3F)c12 (centres unmarked) [Example 132],100 to 1000,
C#Cc1c(F)ccc2cc(O)cc(-c3nc(OC)c4c(N5CC6CCC(C5)N6C(=O)NCC(F)(F)F)nc(OCC5(CN6CCC(C#N)CC6)CC5)nc4c3F)c12 [Example 133],< 100,
C#Cc1c(F)ccc2cc(O)cc(-c3nc(OC)c4c(N5CC6CCC(C5)N6C(=O)NC(C)C#N)nc(OCC5(CN6CCC(C#N)CC6)CC5)nc4c3F)c12 (centres unmarked) [Example 134],< 100,
C#Cc1c(F)ccc2cc(O)cc(-c3nc(OC)c4c(N5CC6CCC(C5)N6C(=O)NC(C)C#N)nc(OCC5(CN6CCC(C(F)(F)F)CC6)CC5)nc4c3F)c12 (centres unmarked) [Example 135],< 100,
C#Cc1c(F)ccc2cc(O)cc(-c3nc(OC)c4c(N5CC6CCC(C5)N6C(=O)NCC(F)(F)F)nc(OCC5(CN6CCC(C(F)(F)F)CC6)CC5)nc4c3F)c12 [Example 136],< 100,
C#Cc1c(F)ccc2cc(O)cc(-c3nc(OC)c4c(N5CC6CCC(C5)N6C)nc(OCC5(CN6CC7CC7C6)CC5)nc4c3F)c12 (centres unmarked) [Example 137],> 1000,
C#Cc1c(F)ccc2cc(O)cc(-c3nc(OC)c4c(N5CC6CCC(C5)N6C(=O)COC(F)(F)F)nc(OCC5(CN6CC7CC7C6)CC5)nc4c3F)c12 (centres unmarked) [Example 138],100 to 1000,
C#Cc1c(F)ccc2cc(O)cc(-c3nc(OC)c4c(N5CC6CCC(C5)N6C(=O)C(C)(C#N)CC#N)nc(OCC5(CN6CC7CC7C6)CC5)nc4c3F)c12 (centres unmarked) [Example 139],100 to 1000,
C#Cc1c(F)ccc2cc(O)cc(-c3nc(OC)c4c(N5CC6CCC(C5)N6C(=O)C(C)CC#N)nc(OCC5(CN6CC7CC7C6)CC5)nc4c3F)c12 (centres unmarked) [Example 141],100 to 1000,
C#Cc1c(F)ccc2cc(O)cc(-c3nc(OC)c4c(N5CC6CCC(C5)N6C)nc(OCC5(CN6CCC(C(F)(F)F)CC6)CC5)nc4c3F)c12 [Example 142],> 1000,
C#Cc1c(F)ccc2cc(O)cc(-c3nc(OC)c4c(N5CC6CCC(C5)N6C(=O)N5CC6CC6C5)nc(OCC5(CN6CC7CC7C6)CC5)nc4c3F)c12 (centres unmarked) [Example 143],100 to 1000,
C#Cc1c(F)ccc2cc(O)cc(-c3nc(OC)c4c(N5CC6CCC(C5)N6C(=O)NCC)nc(OCC5(CN6CC7CC7C6)CC5)nc4c3F)c12 (centres unmarked) [Example 144],100 to 1000,
C#Cc1c(F)ccc2cc(O)cc(-c3nc(OC)c4c(N5CC6CCC(C5)N6C(=O)NC5CC(C#N)C5)nc(OCC5(CN6CC7CC7C6)CC5)nc4c3F)c12 (centres unmarked) [Example 145],100 to 1000,
C#CCC(C#N)C(=O)N1C2CCC1CN(c1nc(OCC3(CN4CC5CC5C4)CC3)nc3c(F)c(-c4cc(O)cc5ccc(F)c(C#C)c45)nc(OC)c13)C2 (centres unmarked) [Example 146],100 to 1000,
C#Cc1c(F)ccc2cc(O)cc(-c3nc(OC)c4c(N5CC6CCC(C5)N6C(=O)CC(C)(C)C#N)nc(OCC5(CN6CC7CC7C6)CC5)nc4c3F)c12 (centres unmarked) [Example 148],< 100,
C#Cc1c(F)ccc2cc(O)cc(-c3nc(OC)c4c(N5CC6CCC(C5)N6C(=O)C5CNC(=O)C5)nc(OCC5(CN6CC7CC7C6)CC5)nc4c3F)c12 (centres unmarked) [Example 149],> 1000,
C#Cc1c(F)ccc2cc(O)cc(-c3nc(OC)c4c(N5CC6CCC(C5)N6C(=O)C5CC(F)(C(C)C)C5)nc(OCC5(CN6CC7CC7C6)CC5)nc4c3F)c12 (centres unmarked) [Example 150],100 to 1000,
C#Cc1c(F)ccc2cc(O)cc(-c3nc(OC)c4c(N5CC6CCC(C5)N6C(=O)C5CN(C)C5)nc(OCC5(CN6CC7CC7C6)CC5)nc4c3F)c12 (centres unmarked) [Example 151],> 1000,

Structure (SMILES),EC50 (72 h) [nM],EC50 (72 hr) [nM]
C#Cc1c(F)ccc2cc(O)cc(-c3nc(OC)c4c(N5CC6CCC(C5)N6C(=O)c5cocn5)nc(OCC5(CN6CC7CC7C6)CC5)nc4c3F)c12 (centres unmarked) [Example 153],100 to 1000,
C#Cc1c(F)ccc2cc(O)cc(-c3nc(OC)c4c(N5CC6CCC(C5)N6C(=O)C5CC(F)(F)CO5)nc(OCC5(CN6CC7CC7C6)CC5)nc4c3F)c12 (centres unmarked) [Example 154],100 to 1000,
C#Cc1c(F)ccc2cc(O)cc(-c3nc(OC)c4c(N5CC6CCC(C5)N6C(=O)C5C6CCOC65)nc(OCC5(CN6CC7CC7C6)CC5)nc4c3F)c12 (centres unmarked) [Example 155],< 100,
C#Cc1c(F)ccc2cc(O)cc(-c3nc(OC)c4c(N5CC6CCC(C5)N6C(=O)CCNC)nc(OCC5(CN6CC7CC7C6)CC5)nc4c3F)c12 (centres unmarked) [Example 157],> 1000,
C#Cc1c(F)ccc2cc(O)cc(-c3nc(OC)c4c(N5CC6CCC(C5)N6C(=O)NC5CN(C)C5)nc(OCC5(CN6CC7CC7C6)CC5)nc4c3F)c12 (centres unmarked) [Example 158],> 1000,
C#Cc1c(F)ccc2cc(O)cc(-c3nc(OC)c4c(N5CC6CCC(C5)N6C(=O)N(C)CC(F)(F)F)nc(OCC5(CN6CC7CC7C6)CC5)nc4c3F)c12 (centres unmarked) [Example 159],100 to 1000,
C#Cc1c(F)ccc2cc(O)cc(-c3nc(OC)c4c(N5CC6CCC(C5)N6C(=O)OCC#N)nc(OCC5(CN6CC7CC7C6)CC5)nc4c3F)c12 (centres unmarked) [Example 161],< 100,
C#Cc1c(F)ccc2cc(O)cc(-c3nc(OC)c4c(N5CC6CCC(C5)N6C(=O)OCC(F)(F)F)nc(OCC5(CN6CC7CC7C6)CC5)nc4c3F)c12 (centres unmarked) [Example 162],,100 to 1000
C#Cc1c(F)ccc2cc(O)cc(-c3nc(OC)c4c(N5CC6CCC(C5)N6C(=O)NC(C)C(F)(F)F)nc(OCC5(CN6CC7CC7C6)CC5)nc4c3F)c12 (centres unmarked) [Example 163],100 to 1000,
C#Cc1c(F)ccc2cc(O)cc(-c3nc(OC)c4c(N5CC6CCC(C5)N6C(=O)OCC)nc(OCC5(CN6CC7CC7C6)CC5)nc4c3F)c12 (centres unmarked) [Example 164],100 to 1000,
C#Cc1c(F)ccc2cc(N)cc(-c3nc(OC)c4c(N5CC6CCC(C5)N6C(=S)NC(C)C#N)nc(OCC5(CN6CC7CC7C6)CC5)nc4c3F)c12 (centres unmarked) [Example 166],> 1000,
C#Cc1c(F)ccc2cc(O)cc(-c3nc(OC)c4c(N5CC6CCC(C5)N6C(=O)C5CC(F)(F)C5(F)F)nc(OCC5(CN6CC7CC7C6)CC5)nc4c3F)c12 (centres unmarked) [Example 167],> 1000,
C#Cc1c(F)ccc2cc(O)cc(-c3nc(OC)c4c(N5CC6CCC(C5)N6C(=O)CCN(C)OC)nc(OCC5(CN6CC7CC7C6)CC5)nc4c3F)c12 (centres unmarked) [Example 168],100 to 1000,
C#Cc1c(F)ccc2cc(O)cc(-c3nc(OC)c4c(N5CC6CCC(C5)C6C(=O)NCC(F)(F)F)nc(OCC5(CN6CC7CC7C6)CC5)nc4c3F)c12 (centres unmarked) [Example 170],> 1000,
C#Cc1c(F)ccc2cc(N)cc(-c3nc(OC)c4c(N5CC6CCC(C5)N6C(=O)C[C@@H](O)C(F)(F)F)nc(OCC5(CN6CC7CC7C6)CC5)nc4c3F)c12 (some centres unmarked) [Example 171],100 to 1000,
Cc1cc(N)nc(-c2c(Cl)cc3c(N4CC5CCC(C4)N5C(=O)CCOC(F)(F)F)nc(OCC4(CN5CC6CC6C5)CC4)nc3c2F)c1C(F)(F)F (centres unmarked) [Example 174],> 1000,
C#Cc1c(F)ccc2cc(O)cc(-c3nc(OC)c4c(N5CC6CCC(C5)N6C(=O)N5CC(OC(F)(F)F)C5)nc(OCC5(CN6CC7CC7C6)CC5)nc4c3F)c12 (centres unmarked) [Example 175],100 to 1000,
C#Cc1c(F)ccc2cc(O)cc(-c3nc(OC)c4c(N5CC6CCC(C5)N6C(=O)C[C@@H](C)C#N)nc(OCC5(CN6CC7CC7C6)CC5)nc4c3F)c12 (some centres unmarked) [Example 177],< 100,
C#Cc1c(F)ccc2cc(OC(=O)C(C)C)cc(-c3nc(OC)c4c(N5CC6CCC(C5)N6C(=O)C(C#N)CC#N)nc(OCC5(CN6CC7CC7C6)CC5)nc4c3F)c12 (centres unmarked) [Example 179],100 to 1000,
C#Cc1c(F)ccc2cc(O)cc(-c3nc(OC)c4c(N5CC6CCC(C5)N6C(=O)C[C@H](O)C(F)(F)F)nc(OCC5(CN6CC7CC7C6)CC5)nc4c3F)c12 (some centres unmarked) [Example 180],100 to 1000,
C#Cc1c(F)ccc2cc(O)cc(-c3nc(OC)c4c(N5CC6CCC(C5)N6C(=O)CC(C)C(F)(F)F)nc(OCC5(CN6CC7CC7C6)CC5)nc4c3F)c12 (centres unmarked) [Example 181],100 to 1000,
C#Cc1c(F)ccc2cc(O)cc(-c3nc(OC)c4c(N5CC6CCC(C5)N6C(=O)NNC)nc(OCC5(CN6CC7CC7C6)CC5)nc4c3F)c12 (centres unmarked) [Example 182],100 to 1000,
C#Cc1c(F)ccc2cc(O)cc(-c3nc(OC)c4c(N5CC6CCC(C5)N6C(=O)NC56CC(F)(C5)C6)nc(OCC5(CN6CC7CC7C6)CC5)nc4c3F)c12 (centres unmarked) [Example 183],< 100,
C#Cc1c(F)ccc2cc(O)cc(-c3nc(OC)c4c(N5CC6CCC(C5)N6C(=O)NC56CC(C(F)(F)F)(C5)C6)nc(OCC5(CN6CC7CC7C6)CC5)nc4c3F)c12 (centres unmarked) [Example 184],100 to 1000,
C#Cc1c(F)ccc2cc(O)cc(-c3nc(OC)c4c(N5CC6CCC(C5)N6C(=O)C56CC(F)(C5)C6)nc(OCC5(CN6CC7CC7C6)CC5)nc4c3F)c12 (centres unmarked) [Example 185],100 to 1000,
